What was measured:
MMP-2 = molecular target: T1, MMP-2 (Homo sapiens, UniProt P08253); assay: MMP-2 spectrofluorometric enzyme activity assay; format: biochemical; details: 50 μM compound
T1 construct: made in house; host or cells: Sf21 insect cells, baculovirus (pBlueBac4.5)
T1 sequence (P08253 110-660): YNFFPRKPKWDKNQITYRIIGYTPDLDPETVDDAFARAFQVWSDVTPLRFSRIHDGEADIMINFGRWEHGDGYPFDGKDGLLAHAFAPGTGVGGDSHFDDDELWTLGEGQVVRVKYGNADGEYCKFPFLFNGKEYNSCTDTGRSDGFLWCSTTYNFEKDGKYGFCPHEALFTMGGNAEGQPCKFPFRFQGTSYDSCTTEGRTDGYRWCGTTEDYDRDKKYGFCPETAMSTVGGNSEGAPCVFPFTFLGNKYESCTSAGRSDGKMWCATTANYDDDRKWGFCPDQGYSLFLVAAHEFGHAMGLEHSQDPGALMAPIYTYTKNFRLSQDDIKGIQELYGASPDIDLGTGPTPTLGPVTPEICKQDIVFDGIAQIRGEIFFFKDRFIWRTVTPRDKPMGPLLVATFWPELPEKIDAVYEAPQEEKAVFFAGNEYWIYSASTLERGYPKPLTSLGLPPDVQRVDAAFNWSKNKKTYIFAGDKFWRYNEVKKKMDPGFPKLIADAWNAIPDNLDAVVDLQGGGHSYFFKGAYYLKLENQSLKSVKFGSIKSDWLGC
Description: (§1) MMP-1, MMP-2, MMP-9 and MMP-13 were cloned and prepared from insect cells (Sf21 insect cell) by using a Baculovirus system.
(§2) Each cDNA for corresponding MMPs was cloned to a pBlueBac4.5 transfer vector (Invitrogen, Cat no. V1995-20), and then transfected to Sf21 cells with a Bac-N-Blue Transfection Kit (Invitrogen, Cat no. K855-01). Sf21 cells were incubated with a TNM-FH (Sigma, St. Louis, Mo., U.S.A) media containing 10% fetal bovine serum at 27° C., then harvested and re-suspended at a concentration of 10^7 cell/Ml. The cell suspension was incubated with a virus containing the cloned gene for 1 hr at room temperature. Infected Sf21 cells were grown for 72 hrs and the medium was recovered, and the MMP was purified. MMP-2 (GENEBANK No. XM—048244) and MMP-9 (GENEBANK No. XM—009491) were recovered from a gelatin-sepharose affinity column (Sigma, G5384) by eluting with 5% DMSO-containing buffer. MMP-1 (GENEBANK NO. XM—040735) and MMP-13 (GENEBANK NO. NM_002427) were purified with SP-sepharose column (Pharmacia, 17-02729-01) chromatography.
(§3) In order to investigate MMP inhibition by chalcone or its derivatives, MMP enzyme activity was assayed by a spectrofluorometric method using Perkin-Elmer LS50B.
(§4) Purified MMP-1, MMP-2, MMP-9 and MMP-13 were used after activation with 1 mM APMA before assay.
(§5) The substrate for MMP-1 was 2,4-dinitrophenyl-Pro-Leu-Ala-Leu-Trp-Ala-Arg-OH (Calbiochem). 2,4-dinitrophenyl-Pro-Leu-Met-Trp-Ser-Arg-OH (Calbiochem) was used for MMP-2 and MMP-9 activity assay. As a substrate for MMP-13, MCA-Pro-Cha-Gly-Nva-His-Ala-Dpa-NH2 (Calbiochem) was used [MCA=methyl coumarylamide; Cha=L-cyclohexylalanine; Nva=L-norvaline; Dpa=3-(2,4-dinitrophenyl)-L-2,3-diaminoproprionic acid].
(§6) As a control, 2 Ml of reaction buffer (50 mM Tricine, pH 7.5, 10 mM CaCl2, 200 mM NaCl) comprising DMSO, 10 nM of enzyme and 10 μM of substrate was prepared in a cuvette. Fluorescence intensity was measured for 5-10 min at room temperature with a spectrofluorometer.
(§7) 50 μM Chalcone or its derivatives were added to a reaction buffer containing a substrate and enzyme, and fluorescence intensity was measured in the same manner.

MMP-13 = molecular target: T2, MMP-13 (Homo sapiens, UniProt P45452); assay: MMP-13 spectrofluorometric enzyme activity assay; format: biochemical; details: 50 μM compound
T2 construct: made in house; host or cells: Sf21 insect cells, baculovirus (pBlueBac4.5)
Description: as §1, §2, §3, §4, §5, §6, §7

[1] = system: human umbilical vein endothelial cells (HUVECs); assay: Tube formation of HUVEC on Matrigel; format: cell-based; details: 50 μM, 8-16 hrs
From the text: The effect of chalcone or its derivatives on human endothelial cells was investigated to evaluate the biological effect of chalcones as MMP inhibitors. Since MMPs are responsible for the degradation of extracellular matrix, chalcone or its derivatives can inhibit the formation of tubular network of vessel, which represent migration and differentiation of endothelial cell. Blood vessel endothelial cells, human umbilical vein endothelial cells (HUVECs), were isolated from freshly obtained cords after cesarean section according to Grants' method (Grants D. S., et al., Cell, 58, pp933-943, 1989). They were identified by immunocytochemical staining with anti-Factor VIII antibody. HUVECs cultured on Matrigel (BD Bioscience, Bedford, Mass., USA) were treated with 50 μM of chalcone or its derivatives, and further incubated at 37° C. for 8-16 hrs. As a control, the procedure was repeated with the solvent of the above compounds.

TPA-induced ear edema = TPA-induced ear edema model; format: in vivo, ICR mouse; details: topical 5% in acetone (indomethacin 0.5 mg/ear), 4 hours after TPA; for Δ Ear thickness (um ± S.D): TPA control 176 ± 35
Description: To observe the anti-inflammatory effects of chalcone or its derivatives edema was induced in the ear by topical application of 10 ul of TPA (Tetradecanoylphorbol acetate) in acetone (2.5 ug/ear) to both the inner and outer surface of one ear of each 6-week-old ICR mouse. 5% of Chalcone or its derivatives diluted with acetone were applied separately to each ear topically immediately after TPA. The reference drug, indomethacin (0.5 mg/ear), was administered as a positive control. Ear thickness was measured before and 4 hours after treatment with the irritant using a micrometer (Mitutoyo Co.). Ear thickness was expressed as the mean of the difference between thickness before and after challenge. Inhibition ratio percentage of edema was expressed as the reduction in thickness with respect to the control treated only with TPA. As shown in FIG. 6 and Table 2, chalcone or its derivatives suppressed the TPA-induced ear edema.

Row | SMILES | MMP-2 inhibition (% inhibition) (MMP-2) | MMP-13 inhibition (% inhibition) (MMP-13) | Tubular (microvascular) network formation of HUVEC [1] | Inhibition ratio (%) of ear edema (TPA-induced ear edema) [%] | Δ Ear thickness (um ± S.D) (TPA-induced ear edema) [um]
1 | COc1ccc(C(=O)C=Cc2ccccc2)cc1 [4′-methoxy chalcone, 4′-methoxychalcone (1-(4-methoxyphenyl)-3-phenylprophenone)] | 99.1 | 86.8 | microvascular network was disconnected | 40.9 | 104 ± 21
2 | O=C(C=Cc1ccc(O)cc1)c1ccccc1 [4-hydroxy chalcone, 4-hydroxychalcone (1-phenyl-3-(4-hydroxyphenyl)prophenone)] | 95.9 | 94.5 |  |  | 
3 | COc1ccc(C=CC(=O)c2ccccc2)cc1 [4-methoxy chalcone, 4-methoxychalcone (1-phenyl-3-(4-methoxyphenyl)prophenone)] | 92.7 | 83.9 |  | 56.2 | 77 ± 19
4 | O=C(CCc1ccc(O)cc1)c1c(O)cc(O)cc1O [Phloretin] | 87.2 | 77.0 |  |  | 
5 | COc1ccc2c(c1)c(CC(=O)O)c(C)n2C(=O)c1ccc(Cl)cc1 [Indomethacin, reference compound] |  |  |  | 72.7 | 48 ± 25
6 | O=C(C=Cc1ccccc1O)c1ccccc1 [2-hydroxy chalcone, 2-hydroxychalcone (1-phenyl-3-(2-hydroxyphenyl)prophenone)] | 90.4 | 89.9 |  | 58.0 | 74 ± 20
7 | COc1ccc(C(=O)C=Cc2ccccc2)c(OC)c1 [2′,4′-dimethoxy chalcone, 2′,4′-dimethoxychalcone (1-(2,4-dimethoxyphenyl)-3-phenylprophenone)] | 92.5 | 83.4 |  |  | 

Reference: US7572831B2, “Composition containing chalcone” (Angiolab, Inc., priority 2002, dated 2009)
